Patent US8158779B2, “Antiviral nucleosides” (Medivir AB, priority 2006, dated 2012)

Columns and labels:
[1] = test system: Renilla luciferase HCV replicon cells (2209-23)
in vitro = settings: human
HCV Pol = target: T1, HCV Pol (Hepatitis C virus genotype 1b, UniProt Q9WMX2); assay: Renilla luciferase HCV replicon assay; type: cell-based
T1 construct: expressed in transfected cells

[2] = test system: human primary hepatocytes; assay: Intracellular triphosphate concentration and half life; type: in vitro ADME; settings: 2 μM
Procedure: The putative active species of the compounds of the invention is β-D-2′-deoxy-2′-β-C-methyl-4′-azidocytidine triphosphate. The stability of the triphosphate is determined in fresh human primary hepatocytes (CellzDirect or In Vitro Technologies) pre-incubated with tritiated parent compound. The hepatocytes are cultured on 6 well collagen coated plates (BD Biosciences), typically at 1.5 million cells/well using complete serum-containing medium (CellzDirect or In Vitro Technologies)/37° C./5% CO2. Various hepatocyte strains are available, such as Hu497, MHL-091806 and Hu504 and it is therefore useful to test such strains in parallel and calculate mean values from a range of strains.
The pre-incubation is typically for 24 hours with 2 μM of the tritiated parent at 10 μC/ml. […] The concentration of intracellular triphosphate is quantified at different time points up to 72 hours. […]
At the appropriate timepoint, cells are harvested by aspirating the cell culture medium and washing the cells with cold PBS. […] The parent and intracellular metabolites are identified by comparison of the retention times of the intracellular species in the radiochromatogram with the retention of non-radioactive reference standards spiked in the cell extract samples and detected by UV absorption, typically at 270 nm […]

T1 sequence (Q9WMX2 2420-3010): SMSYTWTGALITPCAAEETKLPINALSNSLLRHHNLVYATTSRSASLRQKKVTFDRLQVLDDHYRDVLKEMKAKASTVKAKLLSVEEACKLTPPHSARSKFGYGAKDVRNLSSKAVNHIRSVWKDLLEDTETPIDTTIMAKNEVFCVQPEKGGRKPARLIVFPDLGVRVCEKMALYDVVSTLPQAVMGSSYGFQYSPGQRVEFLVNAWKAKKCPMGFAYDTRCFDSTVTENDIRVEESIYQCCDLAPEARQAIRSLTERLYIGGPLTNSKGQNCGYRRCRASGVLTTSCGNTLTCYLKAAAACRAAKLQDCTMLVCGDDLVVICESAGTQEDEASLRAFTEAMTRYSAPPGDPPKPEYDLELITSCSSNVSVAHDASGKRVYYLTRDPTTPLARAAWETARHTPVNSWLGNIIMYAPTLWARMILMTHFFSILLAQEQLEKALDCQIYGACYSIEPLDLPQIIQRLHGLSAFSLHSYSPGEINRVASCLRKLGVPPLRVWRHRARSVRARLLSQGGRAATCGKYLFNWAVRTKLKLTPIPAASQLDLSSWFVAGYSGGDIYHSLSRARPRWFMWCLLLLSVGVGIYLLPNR

CC1C(n2ccc(N)nc2=O)OC(CO)(N=[N+]=[N-])C1O (centres unmarked) [Compound 22, 4-Amino-1-(5-azido-4-hydroxy-5-hydroxymethyl-3-methyl-tetrahydro-furan-2-yl)-1H-pyrimidin-2-one]
cytotoxicity in the replicon assay (in words) [1]: low levels of cytoxicity | cytotoxicity at 100 µM (in vitro): 9.48% | activity in cell based replicon assay for HCV polymerase activity (in words) (HCV Pol): good activity | inhibition at 100 µM (HCV Pol; 100 μM, cell based replicon assay, read-out: Maximum % Inhibition HCV Pol (100 μM)): 98.6%

C[C@@]1(F)[C@H](O)[C@@H](CO)O[C@H]1n1ccc(N)nc1=O [PSI-6130, β-D-2′-deoxy-2′-fluoro-2′-β-C-methylcytidine]
steady state triphosphate level at 24 hours [2]: 1.3 pM/million cells
